# Experimental data taken from patent US20240327364A1, “THERAPEUTIC TARGETING OF GPR68 TO INDUCE FERROPTOSIS” (University Of Maryland, Baltimore, priority 2023, published 2024).
# What was measured:
# HT-29 = test: Cell Titer-Glo viability, Colorectal adenocarcinoma; format: cell-based; parameters: key to Class: Very Sensitive (LC50<2 μM); Sensitive (LC50=2 to 10 μM); Mildly Sensitive (LC50>10 μM); Refractory (no killing at 10 μM)
# Protocol: OGM2 kills wide variety of cancer cell types. Cell sensitivity can be classified in to Very Sensitive (LC50<2 μM), Sensitive (LC50=2 to 10 μM), Mildly Sensitive (LC50>10 μM), and Refractory (no killing at 10 μM). The listed established cell were incubated with OGM2 at 2 μM or 10 μM for 72 hours under standard cell culture conditions, and relative cell number was assessed using Cell Titer-Glo Luminescent Cell Viability Assay (Promega™) following the manufacturer's instructions. Luminescence was determined using a Cytation 5 reader and Gen5 software package (BioTek™).
# Cancer cells, which are very sensitive to killing by OGM2 (LCs <2 μM), with reported mRNA expression of GPR68 and the related proton sensing receptor GPR4. LC50's (concentrations causing 50% lethality) were determined using CellTiter-Glo (Promega™, G7570). Cells were plated in 12-well plates (CELLTREAT Scientific Products, 229112) in 1 ml of DMEM with high glucose, GlutaMAX, HEPES, or RPMI 1640 with Penicillin-Streptomycin (ThermoFisher™, 10564029, 11875119 and 15140122) and 10% FBS. Cells were incubated overnight at 37° C. in 5% CO2. Then 1 mL of fresh media was added with DMSO, OGM, or positive control (Erastin; APExBIO Technology, LLC, B1524) and cells incubated for 3 days. On the third day, all media was removed, cells were rinsed with 1×PBS, PBS was removed, and 200 μL of 1× Passive Lysis Buffer (Promega™, E1941) was added to each well. […]. Subsequently, 20 μL of lysate was added to 100 μL CellTiter-Glo™ reagent on a LUMITRAC 200 plate (Greiner™ bio-one, 82050-726). Plates were briefly spun down and read on a GloMax-Multi Detection System (Promega™).
# The cells listed in the tables above were incubated with OGM2 at 2 μM or 10 μM for 72 hours under standard cell culture conditions, and relative cell number was assessed using Cell Titer-Glo Luminescent Cell Viability Assay (Promega™) following the manufacturer's instructions. Luminescence was determined using a Cytation 5 reader and Gen5 software package (BioTek™). RNA expression of GPR68 and GPR4 in the corresponding cancer cell lines are listed, according to the publicly available The Human Protein Atlas version 22.0 and Ensembl version 103.38 (see proteinatlas.org). The consensus normalized expression value (“nTPM”=normalize transcript per million) was calculated as the maximum nTPM value for each gene in the two data sources.
# DU145 = test: Liperfluo lipid peroxidation; format: cell-based, human
# Text: (§1) OGM2 kills prostate cancer cells by inducing ferroptosis (FIG. 100). […] OGM2 induces ferroptosis in DU145 cells (FIG. 100A) and PC3 cells (FIG. 100C) based on Liperfluo™ lipid peroxidation assay. Erastin, a cystine-glutamate antiporter system Xc^− inhibitor, is a positive control ferroptosis inducer.
# PC3 = test: Liperfluo lipid peroxidation; format: cell-based, human
# Text: as §1
# Panc02 = test: Cell cycle analysis (propidium iodide flow cytometry); format: cell-based, mouse; conditions: 3 Gy radiation in combination with OGM
# Protocol: Where appropriate, ANOVA, or student's T-test were conducted in PRISM. Chi squared T(X) was used for Liperfluo analysis. A value T(X)>4 implies that the two distributions are different with a p<0.01 (99% confidence). For drug interaction and therapeutic interaction, the coefficient of drug interaction (CDI) was calculated as follows: CDI=AB/(A×B). According to the impact of each group, AB is the value of combined treatment and A or B is the value of the single agent group to control group.
# Both radiation and ferroptosis are known to induce G2/M arrest. Therefore, cells were treated with OGM2 and/or 3 Gy radiation. Media was then replaced, and cells were maintained for 24 hours. Cells were then trypsinized, pelleted, and fixed overnight in 70% Methanol at 4° C. Samples were then washed twice with cold PBS before being incubated with 10 mg/ml RNase A and 500 μg/ml propidium iodide in PBS in the dark for 30 minutes at room temperature. Cell cycle progression was determined by Flow cytometry using a LSR II from BD. FIG. 96A presents a cell cycle analysis of OGM2 treatment and irradiated Panc02 cells.
# U87 = test: Clonogenicity (crystal violet); format: cell-based, human; conditions: 12 days
# Protocol: U87 cells were plated at 400 cells per well in a 6-well plate and on the next day were treated with increasing concentrations of OGM2 for 12 days. The doses were 0 uM (DMSO control) 0.1 μM 0.5 uM, 1 uM, 1.5 uM and 2 uM, as labelled. The plate was fixed with formalin and stained with crystal violet.
# BIKE = target: T1, BIKE (Homo sapiens, UniProt Q9NSY1); test: KinomeScan; format: binding; conditions: read-out: % Control
# T1 construct: purchased DiscoveRx (Fremont, CA)
# CHEK2 = CHEK2 (Homo sapiens, UniProt O96017); test: KinomeScan; format: binding; conditions: read-out: % Control
# Chain of CHEK2 (O96017 whole entry): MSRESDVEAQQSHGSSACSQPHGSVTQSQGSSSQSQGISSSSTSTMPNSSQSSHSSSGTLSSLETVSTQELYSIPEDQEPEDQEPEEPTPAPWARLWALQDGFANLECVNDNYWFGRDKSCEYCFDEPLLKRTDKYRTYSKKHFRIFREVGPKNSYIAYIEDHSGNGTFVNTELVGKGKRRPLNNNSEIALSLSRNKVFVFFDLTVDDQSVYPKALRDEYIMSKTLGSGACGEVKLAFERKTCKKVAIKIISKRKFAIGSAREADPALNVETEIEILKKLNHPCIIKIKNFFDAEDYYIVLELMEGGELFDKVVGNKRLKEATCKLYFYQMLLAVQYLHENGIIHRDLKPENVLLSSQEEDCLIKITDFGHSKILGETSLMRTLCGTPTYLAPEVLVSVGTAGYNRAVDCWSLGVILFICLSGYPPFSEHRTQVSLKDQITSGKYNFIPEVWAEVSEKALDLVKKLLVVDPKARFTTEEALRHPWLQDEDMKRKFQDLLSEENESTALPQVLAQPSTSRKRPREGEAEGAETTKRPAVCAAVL
# EGFR(L858R, T790M) = target: T2, EGFR(L858R, T790M) (Homo sapiens, UniProt P00533, L858R/T790M); test: KinomeScan; format: binding; conditions: read-out: % Control
# T2 construct: purchased DiscoveRx (Fremont, CA), KinomeScan service
# GAK = target: T3, GAK (Homo sapiens, UniProt O14976); test: KinomeScan; format: binding; conditions: read-out: % Control
# T3 construct: purchased DiscoveRx (Fremont, CA)
# T3 sequence (O14976 whole entry): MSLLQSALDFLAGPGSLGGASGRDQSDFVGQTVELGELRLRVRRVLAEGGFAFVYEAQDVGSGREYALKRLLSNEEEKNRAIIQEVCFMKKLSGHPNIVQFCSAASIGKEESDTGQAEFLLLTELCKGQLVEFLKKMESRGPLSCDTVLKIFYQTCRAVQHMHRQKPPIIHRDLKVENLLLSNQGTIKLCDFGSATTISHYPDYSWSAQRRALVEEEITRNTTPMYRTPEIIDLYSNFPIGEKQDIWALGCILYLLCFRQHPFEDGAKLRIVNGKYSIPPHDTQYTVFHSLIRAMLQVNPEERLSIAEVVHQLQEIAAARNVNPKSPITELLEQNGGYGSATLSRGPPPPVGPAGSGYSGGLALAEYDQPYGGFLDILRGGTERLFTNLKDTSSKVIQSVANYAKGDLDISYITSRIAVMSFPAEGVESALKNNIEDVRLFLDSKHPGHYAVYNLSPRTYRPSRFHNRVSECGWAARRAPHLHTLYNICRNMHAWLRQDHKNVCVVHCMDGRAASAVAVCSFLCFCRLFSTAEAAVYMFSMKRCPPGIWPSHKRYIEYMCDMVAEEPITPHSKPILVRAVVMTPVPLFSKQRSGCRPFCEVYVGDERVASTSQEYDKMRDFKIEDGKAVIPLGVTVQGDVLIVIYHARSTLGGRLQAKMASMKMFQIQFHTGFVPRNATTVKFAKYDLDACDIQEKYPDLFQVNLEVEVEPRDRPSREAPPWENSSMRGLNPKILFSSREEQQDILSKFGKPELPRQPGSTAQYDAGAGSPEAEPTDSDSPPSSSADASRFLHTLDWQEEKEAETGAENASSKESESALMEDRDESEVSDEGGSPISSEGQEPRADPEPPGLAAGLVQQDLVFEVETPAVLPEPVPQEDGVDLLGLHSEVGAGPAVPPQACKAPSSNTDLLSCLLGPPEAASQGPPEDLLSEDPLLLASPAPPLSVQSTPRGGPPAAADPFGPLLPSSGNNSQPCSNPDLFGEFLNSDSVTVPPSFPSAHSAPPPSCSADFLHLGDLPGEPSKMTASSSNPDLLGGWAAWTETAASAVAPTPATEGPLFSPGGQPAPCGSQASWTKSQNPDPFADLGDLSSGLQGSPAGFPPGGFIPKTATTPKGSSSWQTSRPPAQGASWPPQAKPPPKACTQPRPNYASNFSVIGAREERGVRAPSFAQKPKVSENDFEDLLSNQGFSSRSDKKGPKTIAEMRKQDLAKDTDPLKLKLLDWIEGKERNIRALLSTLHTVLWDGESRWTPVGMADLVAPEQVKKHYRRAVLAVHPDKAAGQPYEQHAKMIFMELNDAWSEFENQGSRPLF
# MAP4K3 = target: T4, MAP4K3 (Homo sapiens, UniProt Q8IVH8); test: KinomeScan; format: binding; conditions: read-out: % Control
# T4 construct: purchased DiscoveRx (Fremont, CA)
# T4 sequence (Q8IVH8 whole entry): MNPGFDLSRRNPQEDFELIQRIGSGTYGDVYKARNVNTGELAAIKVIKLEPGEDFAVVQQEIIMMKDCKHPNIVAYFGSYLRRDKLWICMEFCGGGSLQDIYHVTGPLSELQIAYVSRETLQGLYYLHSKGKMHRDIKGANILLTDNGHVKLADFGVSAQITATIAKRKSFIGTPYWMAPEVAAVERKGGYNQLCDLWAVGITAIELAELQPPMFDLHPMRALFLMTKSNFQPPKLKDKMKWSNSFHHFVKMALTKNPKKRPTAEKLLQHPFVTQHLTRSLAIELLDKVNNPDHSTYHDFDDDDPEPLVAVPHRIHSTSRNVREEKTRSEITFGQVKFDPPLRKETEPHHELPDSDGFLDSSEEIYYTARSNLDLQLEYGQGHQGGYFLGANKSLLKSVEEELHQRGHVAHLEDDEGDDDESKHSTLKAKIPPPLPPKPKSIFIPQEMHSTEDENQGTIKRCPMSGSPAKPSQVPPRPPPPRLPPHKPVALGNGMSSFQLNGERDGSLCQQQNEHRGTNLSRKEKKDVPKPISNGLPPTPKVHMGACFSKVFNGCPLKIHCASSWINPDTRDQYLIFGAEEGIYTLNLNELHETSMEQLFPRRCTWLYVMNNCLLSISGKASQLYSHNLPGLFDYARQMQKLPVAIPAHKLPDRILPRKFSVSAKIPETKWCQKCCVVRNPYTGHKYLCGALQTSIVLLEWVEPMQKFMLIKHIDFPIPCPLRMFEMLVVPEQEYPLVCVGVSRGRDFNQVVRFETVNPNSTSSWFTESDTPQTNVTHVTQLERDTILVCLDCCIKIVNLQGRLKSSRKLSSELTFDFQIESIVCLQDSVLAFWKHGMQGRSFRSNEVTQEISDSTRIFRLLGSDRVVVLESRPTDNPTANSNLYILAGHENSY
# PIK3CA(C420R) = target: T5, PIK3CA(C420R) (Homo sapiens, UniProt P42336, C420R); test: KinomeScan; format: binding; conditions: read-out: % Control
# T5 construct: purchased DiscoveRx (Fremont, CA)
# T5 sequence (P42336 whole entry C420R): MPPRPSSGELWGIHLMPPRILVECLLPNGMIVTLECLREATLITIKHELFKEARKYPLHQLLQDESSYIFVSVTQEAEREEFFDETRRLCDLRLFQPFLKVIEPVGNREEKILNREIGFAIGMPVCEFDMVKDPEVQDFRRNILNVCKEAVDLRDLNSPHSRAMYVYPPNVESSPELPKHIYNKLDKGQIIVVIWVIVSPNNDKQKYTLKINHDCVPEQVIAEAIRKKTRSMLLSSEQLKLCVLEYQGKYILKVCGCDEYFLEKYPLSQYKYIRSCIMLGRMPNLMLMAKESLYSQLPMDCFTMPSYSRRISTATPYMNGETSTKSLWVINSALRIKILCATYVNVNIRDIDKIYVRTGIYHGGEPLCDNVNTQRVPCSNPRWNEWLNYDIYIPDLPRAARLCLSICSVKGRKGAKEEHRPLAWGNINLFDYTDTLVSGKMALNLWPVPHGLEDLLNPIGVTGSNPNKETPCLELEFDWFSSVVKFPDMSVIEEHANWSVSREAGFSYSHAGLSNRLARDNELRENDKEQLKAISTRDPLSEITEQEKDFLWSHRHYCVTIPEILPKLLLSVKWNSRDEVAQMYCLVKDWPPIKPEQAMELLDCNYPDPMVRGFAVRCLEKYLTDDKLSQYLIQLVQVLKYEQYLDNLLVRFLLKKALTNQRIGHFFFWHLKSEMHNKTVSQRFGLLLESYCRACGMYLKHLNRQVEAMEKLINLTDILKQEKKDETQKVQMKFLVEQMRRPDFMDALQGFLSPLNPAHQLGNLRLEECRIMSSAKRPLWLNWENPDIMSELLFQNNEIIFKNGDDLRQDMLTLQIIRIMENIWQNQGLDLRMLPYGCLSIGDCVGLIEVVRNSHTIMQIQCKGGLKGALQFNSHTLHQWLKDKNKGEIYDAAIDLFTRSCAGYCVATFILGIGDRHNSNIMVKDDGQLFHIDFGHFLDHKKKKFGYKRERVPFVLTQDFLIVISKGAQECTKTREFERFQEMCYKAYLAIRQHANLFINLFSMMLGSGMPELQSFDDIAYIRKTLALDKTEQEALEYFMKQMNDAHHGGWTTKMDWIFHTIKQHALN
# [1] = target: T6, RPS6KA4(Kin.Dom.2-C-terminal) (Homo sapiens, UniProt O75676); test: KinomeScan; format: binding; conditions: read-out: % Control
# T6 construct: RPS6KA4(Kin.Dom.2-C-terminal); purchased DiscoveRx (Fremont, CA)
# T6 sequence (O75676 411-674 limits assumed): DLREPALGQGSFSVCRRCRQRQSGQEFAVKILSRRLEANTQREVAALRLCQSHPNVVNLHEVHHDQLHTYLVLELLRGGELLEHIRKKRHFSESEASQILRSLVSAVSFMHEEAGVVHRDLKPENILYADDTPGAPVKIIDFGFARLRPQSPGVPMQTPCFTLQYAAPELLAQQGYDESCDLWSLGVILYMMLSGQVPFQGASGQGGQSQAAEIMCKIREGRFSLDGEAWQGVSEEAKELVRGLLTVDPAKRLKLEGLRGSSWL
# CB1 = target: T7, CB1 (Homo sapiens, UniProt P21554); test: GPCR Profiler; format: cell-based
# T7 construct: host or cells: Chem-1 cells with promiscuous Gα15
# T7 sequence (P21554 whole entry, species assumed): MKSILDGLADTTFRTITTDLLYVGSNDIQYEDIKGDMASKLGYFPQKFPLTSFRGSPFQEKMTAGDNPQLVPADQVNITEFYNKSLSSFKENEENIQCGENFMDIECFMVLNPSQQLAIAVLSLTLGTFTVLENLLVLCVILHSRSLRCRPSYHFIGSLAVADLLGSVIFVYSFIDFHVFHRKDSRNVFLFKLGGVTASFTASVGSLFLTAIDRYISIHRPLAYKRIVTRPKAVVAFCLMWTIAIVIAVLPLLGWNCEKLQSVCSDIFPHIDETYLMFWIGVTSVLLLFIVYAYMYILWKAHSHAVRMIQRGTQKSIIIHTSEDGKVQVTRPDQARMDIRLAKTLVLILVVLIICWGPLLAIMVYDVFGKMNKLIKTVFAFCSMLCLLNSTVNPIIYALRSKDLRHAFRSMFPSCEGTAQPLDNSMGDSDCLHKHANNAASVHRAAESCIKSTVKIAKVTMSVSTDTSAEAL
# ChemR23 = target: T8, ChemR23 (Homo sapiens, UniProt Q99788); test: GPCR Profiler; format: cell-based
# T8 construct: host or cells: Chem-1 cells with Gα15
# T8 sequence (Q99788 whole entry, species assumed): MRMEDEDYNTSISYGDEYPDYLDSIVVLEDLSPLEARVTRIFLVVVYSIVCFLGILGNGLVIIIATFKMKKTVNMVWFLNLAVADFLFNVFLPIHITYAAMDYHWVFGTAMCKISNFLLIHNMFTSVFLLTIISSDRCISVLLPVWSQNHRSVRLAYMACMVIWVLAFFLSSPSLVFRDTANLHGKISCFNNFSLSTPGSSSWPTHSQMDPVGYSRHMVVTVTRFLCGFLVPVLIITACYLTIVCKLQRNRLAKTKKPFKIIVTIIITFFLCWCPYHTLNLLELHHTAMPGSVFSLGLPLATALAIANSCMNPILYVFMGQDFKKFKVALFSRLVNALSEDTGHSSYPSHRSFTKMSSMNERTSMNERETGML
Structure (SMILES),Class (HT-29),% Survival 2 μM OGM (HT-29; 72 hours) [%],% Survival 10 μM OGM (HT-29; 72 hours) [%],LC50 (μM) (HT-29; 72 hours),lipid peroxidation (DU145),lipid peroxidation (PC3),"coefficient of drug interaction (CDI), G2 phase fraction (Panc02)",increase in the G2 phase fraction (Panc02) [%],clonogenicity (U87),remaining binding at 10 µM (BIKE) [%],remaining binding at 10 µM (CHEK2) [%],"remaining binding at 10 µM (EGFR(L858R, T790M)) [%]",remaining binding at 10 µM (GAK) [%],remaining binding at 10 µM (MAP4K3) [%],remaining binding at 10 µM (PIK3CA(C420R)) [%],remaining binding at 10 µM [1] [%],Antagonism (CB1; 10 uM),Agonism (CB1; 12.5 uM),Antagonism (ChemR23; 10 uM),Agonism (ChemR23; 12.5 uM)
CCc1ccc2c(c1)C1(NN=C(c3ccccc3)S1)C(=O)N2 (centres unmarked) [OGM2],Refractory,102.8,103.9,No,significantly increased lipid peroxidation,significantly increased lipid peroxidation,0.689,120,reduces clonogenicity of U87 glioblastoma cells,,,,,,,,,,,
"CCc1ccc2c(c1)C1(NN=C(c3cccc4ccccc34)S1)C(=O)N2 (centres unmarked) [OGM1, 5-ethyl-5′-naphthalen-1-ylspiro[1H-indole-3,2′-3H-1,3,4-thiadiazole]-2-one]",,,,,,,,,,88,82,89,64,100,100,74,−6.8,−0.1,0.1,0
